Results taken from US4081441A, “Antibacterial agents” (priority 1977, dated 1978).
In brackets after ≈: the same amount, converted by molar mass. Read-outs that look alike come from different tables or passages of the source.

Key:
Pseudomonas aeruginosa [1] = test: Minimum Inhibitory Concentration, agar dilution, overnight incubation at 37° C.; format: cell-based; conditions: for MIC: Pseudomonas aeruginosa
Text: A carbenicillin sample was also run for comparative purposes.

Pseudomonas aeruginosa [2] = test: Minimum Bactericidal Concentration, inoculum 10^4 cells/ml., at least 99% kill; format: cell-based
Protocol: The bactericidal in vitro activity of sodium D(-)-6-(α-(1,2,4-triazine-3,5-dione-6-carboxamido)-4-hydroxyphenylacetamido)penicillanate (BL-P1908) against several strains of Pseudomonas aeruginosa was determined under two sets of conditions. In one test the Minimum Bactericidal Concentrations (M.B.C.) were determined using an inoculum size of 10^4 cells/ml. and the M.B.C. was defined as the lowest concentration of antibiotic in mcg./ml. needed to kill at least 99% of the viable Pseudomonas cells.

Pseudomonas aeruginosa [3] = test: Minimum Bactericidal Concentration, inoculum 10^5 cells/ml., at least 99.9% kill; format: cell-based
Text: The effect of increased inoculum size on the bactericidal activity of BL-P1908 was investigated by a second test in which an inoculum size of 10^5 cells/ml. was used and the M.B.C. was defined as the lowest concentration of antibiotics in mcg./ml. needed to kill at least 99.9% of viable Pseudomonas cells.

[4] = Mouse blood (plasma) antibiotic levels after single intramuscular dose; format: in vivo; conditions: im, 40 mg/kg, mice, 40 mg./kg. i.m., Test 1 (Ave. of 6 mice tested), read-out: Blood Level
Protocol: Plasma antibiotic levels from mice administered a single intramuscular dose of 40 mg./kg. of BL-[…] or carbenicillin are shown in the following table.

Bacteroides fragilis = test: M.I.C. against anaerobic bacteria, Bacteroides fragilis; format: cell-based
Cl. acidiurici = test: M.I.C. against anaerobic bacteria, Cl. acidiurici; format: cell-based; conditions: strain A9560
Cl. cylindrosporum = test: M.I.C. against anaerobic bacteria, Cl. cylindrosporum; format: cell-based; conditions: strain A9562
Cl. difficile = test: M.I.C. against anaerobic bacteria, Cl. difficile; format: cell-based; conditions: Clostridioides difficile
Cl. septicum = test: M.I.C. against anaerobic bacteria, Cl. septicum; format: cell-based; conditions: Clostridium septicum; strain A21869
Cl. perfringens = test: microbe, parasite or virus in culture; format: cell-based; conditions: Clostridium perfringens
Cl. ramosum = test: M.I.C. against anaerobic bacteria, Cl. ramosum; format: cell-based; conditions: Thomasclavelia ramosa
[5] = mice, 40 mg./kg. i.m., Literature values, cited from earlier work
Pseudomonas aeruginosa [6] = test: animal or person; conditions: in Mus musculus, im

CC1(C)S[C@@H]2[C@H](NC(=O)C(C(=O)O)c3ccccc3)C(=O)N2[C@H]1C(=O)O (some centres unmarked) [Carbenicillin, reference compound]
M.I.C. (Pseudomonas aeruginosa [1]): 32 µg/mL
MIC (Pseudomonas aeruginosa [1]; strain A9502): 63 µg/mL (≈ 166 µM)
MIC (Pseudomonas aeruginosa [1]; strain A9827): 32 µg/mL (≈ 84.6 µM)
MIC (Pseudomonas aeruginosa [1]; strain A9910): 32 µg/mL (≈ 84.6 µM)
MIC (Pseudomonas aeruginosa [1]; strain A9923): 63 µg/mL (≈ 166 µM)
MIC (Pseudomonas aeruginosa [1]; strain A9924): 63 µg/mL (≈ 166 µM)
MIC (Pseudomonas aeruginosa [1]; strain A9925): 32 µg/mL (≈ 84.6 µM)
MIC (Pseudomonas aeruginosa [1]; strain A9926): 63 µg/mL (≈ 166 µM)
MIC (Pseudomonas aeruginosa [1]; strain A9930): 63 µg/mL (≈ 166 µM)
MIC (Pseudomonas aeruginosa [1]; strain A9931): 63 µg/mL (≈ 166 µM)
MIC (Pseudomonas aeruginosa [1]; strain A15150): 32 µg/mL (≈ 84.6 µM)
MIC (Pseudomonas aeruginosa [1]; strain A15151): 32 µg/mL (≈ 84.6 µM)
MIC (Pseudomonas aeruginosa [1]; strain A15194): > 125 µg/mL
MIC (Pseudomonas aeruginosa [1]; strain A15195): 63 µg/mL (≈ 166 µM)
MIC (Pseudomonas aeruginosa [1]; strain A15196): 63 µg/mL (≈ 166 µM)
MIC (Pseudomonas aeruginosa [1]; strain A20125): 63 µg/mL (≈ 166 µM)
MIC (Pseudomonas aeruginosa [1]; strain A20126): 16 µg/mL (≈ 42.3 µM)
MIC (Pseudomonas aeruginosa [1]; strain A20127): 63 µg/mL (≈ 166 µM)
MIC (Pseudomonas aeruginosa [1]; strain A20128): 63 µg/mL (≈ 166 µM)
MIC (Pseudomonas aeruginosa [1]; strain A20129): 63 µg/mL (≈ 166 µM)
MIC (Pseudomonas aeruginosa [1]; strain A20130): 63 µg/mL (≈ 166 µM)
MIC (Pseudomonas aeruginosa [1]; strain A20228): 63 µg/mL (≈ 166 µM)
MIC (Pseudomonas aeruginosa [1]; strain A20546): 63 µg/mL (≈ 166 µM)
MIC (Pseudomonas aeruginosa [1]; strain A20557): > 125 µg/mL
MIC (Pseudomonas aeruginosa [1]; strain A20574): 32 µg/mL (≈ 84.6 µM)
MIC (Pseudomonas aeruginosa [1]; strain A20602): 63 µg/mL (≈ 166 µM)
MIC (Pseudomonas aeruginosa [1]; strain A20616): 63 µg/mL (≈ 166 µM)
MIC (Pseudomonas aeruginosa [1]; strain A20641): 63 µg/mL (≈ 166 µM)
MIC (Pseudomonas aeruginosa [1]; strain A20717): > 125 µg/mL
MIC (Pseudomonas aeruginosa [1]; strain A20726): 63 µg/mL (≈ 166 µM)
MIC (Pseudomonas aeruginosa [1]; strain A21336): 63 µg/mL (≈ 166 µM)
MBC (Pseudomonas aeruginosa [2]; strain 9843A): 63 µg/mL (≈ 166 µM)
MBC (Pseudomonas aeruginosa [2]; strain 9910): 32 µg/mL (≈ 84.6 µM)
MBC (Pseudomonas aeruginosa [2]; strain 9926): 63 µg/mL (≈ 166 µM)
MBC (Pseudomonas aeruginosa [2]; strain 20126): 63 µg/mL (≈ 166 µM)
MBC (Pseudomonas aeruginosa [2]; strain 20128): 63 µg/mL (≈ 166 µM)
MBC (Pseudomonas aeruginosa [2]; strain 20227): 63 µg/mL (≈ 166 µM)
MBC (Pseudomonas aeruginosa [2]; strain 20228): 63 µg/mL (≈ 166 µM)
MBC (Pseudomonas aeruginosa [2]; strain 20546): 63 µg/mL (≈ 166 µM)
MBC (Pseudomonas aeruginosa [2]; strain 20557): 250 µg/mL (≈ 661 µM)
MBC (Pseudomonas aeruginosa [2]; strain 20574): 63 µg/mL (≈ 166 µM)
MBC (Pseudomonas aeruginosa [2]; strain 20616): 125 µg/mL (≈ 330 µM)
MBC (Pseudomonas aeruginosa [2]; strain 20641): 125 µg/mL (≈ 330 µM)
MBC (Pseudomonas aeruginosa [2]; strain 20717): 250 µg/mL (≈ 661 µM)
MBC (Pseudomonas aeruginosa [2]; strain 20726): 125 µg/mL (≈ 330 µM)
MBC (Pseudomonas aeruginosa [2]; strain 21336): 63 µg/mL (≈ 166 µM)
MBC (Pseudomonas aeruginosa [3]; strain 9843A): 125 µg/mL (≈ 330 µM)
MBC (Pseudomonas aeruginosa [3]; strain 9910): 125 µg/mL (≈ 330 µM)
MBC (Pseudomonas aeruginosa [3]; strain 9926): 125 µg/mL (≈ 330 µM)
MBC (Pseudomonas aeruginosa [3]; strain 20126): 63 µg/mL (≈ 166 µM)
MBC (Pseudomonas aeruginosa [3]; strain 20128): 125 µg/mL (≈ 330 µM)
MBC (Pseudomonas aeruginosa [3]; strain 20227): 125 µg/mL (≈ 330 µM)
MBC (Pseudomonas aeruginosa [3]; strain 20228): 63 µg/mL (≈ 166 µM)
MBC (Pseudomonas aeruginosa [3]; strain 20546): 250 µg/mL (≈ 661 µM)
MBC (Pseudomonas aeruginosa [3]; strain 20557): 250 µg/mL (≈ 661 µM)
MBC (Pseudomonas aeruginosa [3]; strain 20574): 125 µg/mL (≈ 330 µM)
MBC (Pseudomonas aeruginosa [3]; strain 20602): 250 µg/mL (≈ 661 µM)
MBC (Pseudomonas aeruginosa [3]; strain 20616): 250 µg/mL (≈ 661 µM)
MBC (Pseudomonas aeruginosa [3]; strain 20641): 125 µg/mL (≈ 330 µM)
MBC (Pseudomonas aeruginosa [3]; strain 20717): 1000 µg/mL (≈ 2640 µM)
MBC (Pseudomonas aeruginosa [3]; strain 20726): 250 µg/mL (≈ 661 µM)
MBC (Pseudomonas aeruginosa [3]; strain 21336): 125 µg/mL (≈ 330 µM)
concentration at 0.25 h ([4]; 15 min.): 19100 ng/mL
concentration at 0.5 h ([4]; 30 min.): 12500 ng/mL
concentration at 1 h ([4]; 60 min.): 4000 ng/mL
concentration at 1.5 h ([4]; 90 min.): < 1400 ng/mL
MIC (Bacteroides fragilis; strain A20920): 2 µg/mL (≈ 5.29 µM)
MIC (Bacteroides fragilis; strain A20926): 16 µg/mL (≈ 42.3 µM)
MIC (Bacteroides fragilis; strain A20927-1): 2 µg/mL (≈ 5.29 µM)
MIC (Bacteroides fragilis; strain A20930): 63 µg/mL (≈ 166 µM)
MIC (Bacteroides fragilis; strain A20933): 32 µg/mL (≈ 84.6 µM)
MIC (Bacteroides fragilis; strain A20934): 32 µg/mL (≈ 84.6 µM)
MIC (Bacteroides fragilis; strain A20935): 32 µg/mL (≈ 84.6 µM)
MIC (Bacteroides fragilis; strain A21870): 4 µg/mL (≈ 10.6 µM)
MIC (Bacteroides fragilis; strain A21871): 32 µg/mL (≈ 84.6 µM)
MIC (Bacteroides fragilis; strain A21872): 63 µg/mL (≈ 166 µM)
MIC (Bacteroides fragilis; strain A21875): 16 µg/mL (≈ 42.3 µM)
MIC (Bacteroides fragilis; strain A22053): 63 µg/mL (≈ 166 µM)
MIC (Bacteroides fragilis; strain A27020): > 125 µg/mL
MIC (Cl. acidiurici): 0.5 µg/mL (≈ 1.32 µM)
MIC (Cl. cylindrosporum): 0.5 µg/mL (≈ 1.32 µM)
MIC (Cl. difficile; strain A21675): 32 µg/mL (≈ 84.6 µM)
MIC (Cl. difficile; strain A21972): 32 µg/mL (≈ 84.6 µM)
MIC (Cl. septicum): 1 µg/mL (≈ 2.64 µM)
MIC (Cl. perfringens; strain A21873): 0.5 µg/mL (≈ 1.32 µM)
MIC (Cl. perfringens; strain A21874): 0.5 µg/mL (≈ 1.32 µM)
MIC (Cl. perfringens; strain A21907): 4 µg/mL (≈ 10.6 µM)
MIC (Cl. ramosum; strain A21883): 32 µg/mL (≈ 84.6 µM)
MIC (Cl. ramosum; strain A21970): 32 µg/mL (≈ 84.6 µM)
Blood Level ([5]; 15 min.): 18100 ng/mL
Blood Level ([5]; 30 min.): 8100 ng/mL
Blood Level ([5]; 60 min.): < 4600 ng/mL
Blood Level ([5]; 90 min.): < 4600 ng/mL
ED50 (Pseudomonas aeruginosa [6]; read-out: PD50 /treatment, P. aeruginosa A9843A, challenge 1 × 10^4, i.m., typical figures based on several tests): 100 mg/kg
ED50 (Pseudomonas aeruginosa [6]; read-out: PD50 /treatment, P. aeruginosa A9843A, challenge 2 × 10^4, i.m., typical figures based on several tests): 100 mg/kg
ED50 (Pseudomonas aeruginosa [6]; read-out: PD50 /treatment, P. aeruginosa A9843A, challenge 3 × 10^4, i.m., at 0 and 2 hours): 130 mg/kg
ED50 (Pseudomonas aeruginosa [6]; read-out: PD50 /treatment, P. aeruginosa A20599, challenge 3 × 10^4, i.m., at 0 and 2 hours): 100 mg/kg
ED50 (Pseudomonas aeruginosa [6]; read-out: PD50 /treatment, P. aeruginosa A20599, challenge 6 × 10^4, i.m., at 0 and 2 hours): 130 mg/kg
